In PMC10957570, “Coniferyl ferulate alleviate xylene-caused hematopoietic stem and progenitor cell toxicity by Mgst2” (Frontiers in Pharmacology, 2024):

Target: T1, Mgst2 (Mus musculus, UniProt A2RST1)
T1 construct: native protein in lysate of CD117+ bone marrow cells, captured on CF chip and identified by LC-MS/MS
Assay: SPR capture from cell lysate on CF chip, LC-MS/MS identification
Format: biochemical
Details: CD117+ bone marrow cell lysate; CF immobilised; excess free CF lowered total SPR signal

T1 sequence (A2RST1 whole entry): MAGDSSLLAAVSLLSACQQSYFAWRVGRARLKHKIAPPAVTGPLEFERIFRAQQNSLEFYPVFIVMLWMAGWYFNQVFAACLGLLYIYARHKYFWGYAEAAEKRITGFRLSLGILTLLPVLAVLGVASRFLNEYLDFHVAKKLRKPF

SMILES: COc1cc(/C=C/COC(=O)/C=C/c2ccc(O)c(OC)c2)ccc1O [Coniferyl ferulate]
- SPR capture from cell lysate on CF chip, LC-MS/MS identification: we found that Mgst2 was one of the targets of CF
